Measured values taken from ChEMBL document CHEMBL3244272, “Folate antagonists. 15. 2,3-Diamino-6-(2-naphthylsulfonyl)quinazoline and related 2,4-diamino-6-[(phenyl and naphthyl)sulfinyl and sulfonyl]quinazolines, a potent new class of antimetabolites with phenomenal antimalarial activity” (J Med Chem, 1979).
Values after ≈ are worked out from the molar mass of the structure shown. Active and inactive are the calls of the source. The calls are words filed in the database; no cut-off is given here.

Key:
[1] = test system: Enterococcus faecalis; assay: Antibacterial activity against Streptococcus faecalis MGH-2 assessed as growth inhibition; type: functional
[2] = test system: Staphylococcus aureus; assay: Antibacterial activity against Staphylococcus aureus UC-76 assessed as growth inhibition; type: functional
[3] = test system: Staphylococcus aureus; assay: Antibacterial activity against Staphylococcus aureus S18713 assessed as growth inhibition; type: functional
[4] = test system: Pseudomonas aeruginosa; assay: Antibacterial activity against Pseudomonas aeruginosa 28 assessed as growth inhibition; type: functional
[5] = test system: Escherichia coli; assay: Antibacterial activity against Escherichia coli Vogel assessed as growth inhibition; type: functional
[6] = test system: Shigella sonnei; assay: Antibacterial activity against Shigella sonnei C-10 assessed as growth inhibition; type: functional
[7] = test system: Plasmodium berghei; assay: Antimalarial activity against trophozoite-induced Plasmodium berghei infected in sc dosed mouse assessed as minimum curative dose; type: functional
[8] = test system: Plasmodium berghei; assay: Antimalarial activity against trophozoite-induced Plasmodium berghei infected in mouse assessed as change in mean survival time at 5 mg/kg, sc single dose after 72 hrs of infection; type: functional; settings: route subcutaneous
[9] = test system: Plasmodium berghei; assay: Antimalarial activity against trophozoite-induced Plasmodium berghei infected in mouse assessed as change in mean survival time at 2.5 mg/kg, sc single dose after 72 hrs of infection; type: functional; settings: route subcutaneous
[10] = test system: Plasmodium berghei; assay: Antimalarial activity against trophozoite-induced Plasmodium berghei infected in mouse assessed as change in mean survival time at 1.25 mg/kg, sc single dose after 72 hrs of infection; type: functional; settings: route subcutaneous
[11] = test system: Plasmodium gallinaceum; assay: Antimalarial activity against sporozoite-induced Plasmodium gallinaceum infected in chick assessed as change in cured at 60 mg/kg, sc single dose; type: functional; settings: route subcutaneous
[12] = test system: Plasmodium gallinaceum; assay: Antimalarial activity against sporozoite-induced Plasmodium gallinaceum infected in chick assessed as change in cured at 30 mg/kg, sc single dose; type: functional; settings: route subcutaneous
[13] = test system: Plasmodium gallinaceum; assay: Antimalarial activity against sporozoite-induced Plasmodium gallinaceum infected in chick assessed as change in cured at 15 mg/kg, sc single dose; type: functional; settings: route subcutaneous
[14] = test system: Plasmodium gallinaceum; assay: Antimalarial activity against sporozoite-induced Plasmodium gallinaceum infected in chick assessed as change in cured at 7.5 mg/kg, sc single dose; type: functional; settings: route subcutaneous
[15] = test system: Mycobacterium tuberculosis; assay: Antibacterial activity against Mycobacterium tuberculosis H37Rv assessed as growth inhibition; type: functional
[16] = test system: Plasmodium berghei; assay: Antimalarial activity against trophozoite-induced Plasmodium berghei infected in mouse assessed as change in mean survival time at 40 mg/kg, sc single dose after 72 hrs of infection; type: functional; settings: route subcutaneous
[17] = test system: Plasmodium berghei; assay: Antimalarial activity against trophozoite-induced Plasmodium berghei infected in mouse assessed as change in mean survival time at 20 mg/kg, sc single dose after 72 hrs of infection; type: functional; settings: route subcutaneous
[18] = test system: Plasmodium berghei; assay: Antimalarial activity against trophozoite-induced Plasmodium berghei infected in mouse assessed as change in mean survival time at 10 mg/kg, sc single dose after 72 hrs of infection; type: functional; settings: route subcutaneous
[19] = test system: Plasmodium berghei; assay: Antimalarial activity against trophozoite-induced Plasmodium berghei infected in mouse assessed as change in mean survival time at 80 mg/kg, sc single dose after 72 hrs of infection; type: functional; settings: route subcutaneous
[20] = test system: Plasmodium gallinaceum; assay: Antimalarial activity against cycloguanil-resistant Plasmodium gallinaceum infected in mouse assessed as dose required to suppress parasitemia by 90% compound treated through gavage for 3 days; type: functional
[21] = test system: Plasmodium gallinaceum; assay: Antimalarial activity against cycloguanil-resistant Plasmodium gallinaceum infected in mouse assessed as dose required to suppress parasitemia by 90% compound treated through gavage for 3 days relative to parent strain; type: functional
[22] = test system: Plasmodium falciparum; assay: Antimalarial activity against chloroquine-sensitive, pyrimethamine-resistant Plasmodium falciparum Malayan Camp CH/Q infected in Aotus monkey assessed as dose required to >50% cures compound treated for 7 days; type: functional
[23] = test system: Plasmodium falciparum; assay: Antimalarial activity against chloroquine-resistant, pyrimethamine-sensitive Plasmodium falciparum Vietnam Oak Knoll in Aotus monkey assessed as dose required to >50% cures compound treated for 7 days; type: functional
[24] = test system: Plasmodium berghei; assay: Antimalarial activity against trophozoite-induced Plasmodium berghei infected in mouse assessed as change in mean survival time at 160 mg/kg, sc single dose after 72 hrs of infection; type: functional; settings: route subcutaneous
[25] = test system: Plasmodium gallinaceum; assay: Antimalarial activity against trophozoite-induced Plasmodium gallinaceum infected in chick assessed as mean survival time at 120 mg/kg, sc single dose (reference value: 4 days); type: functional; settings: route subcutaneous
[26] = test system: Plasmodium gallinaceum; assay: Antimalarial activity against trophozoite-induced Plasmodium gallinaceum infected in chick assessed as cured at 120 mg/kg, sc single dose; type: functional, organism-based; design: dose 120 mg/kg
[27] = test system: Gallus gallus; assay: Toxicity in trophozoite-induced Plasmodium gallinaceum infected in chick assessed as death at 120 mg/kg, sc single dose measured within 48 hrs; type: organism-based; design: dose 120 mg/kg, route subcutaneous; settings: chicken, in vivo

Cc1c([S+]([O-])c2ccc3ccccc3c2)ccc2nc(N)nc(N)c12 (stereo not drawn)
MIC [1]: < 0.25 µg/mL | MIC [2]: > 25 µg/mL | MIC [3]: > 25 µg/mL | MIC [4]: > 25 µg/mL | MIC [5]: > 25 µg/mL | MIC [6]: > 25 µg/mL | MCD [7]: 20 mg/kg | MST [8]: 22.9 days | MST [9]: 10.7 days | MST [10]: 9.7 days | MST [11]: 3.7 days | MST [12]: 3.7 days | MST [13]: 3.7 days | MST [14]: 3.7 days

Nc1nc(N)c2cc(S(=O)(=O)c3cccc(-c4ccccc4)c3)ccc2n1
MIC [1]: < 0.25 µg/mL | MIC [2]: 1 µg/mL (≈ 2.66 µM) | MIC [3]: 1.5 µg/mL (≈ 3.98 µM) | MIC [4]: > 25 µg/mL | MIC [5]: > 25 µg/mL | MIC [6]: > 25 µg/mL | MIC [15]: > 25 µg/mL | MCD [7]: 40 mg/kg | MST [16]: 16.9 days | MST [17]: 21.9 days | MST [18]: 13.9 days | MST [8]: 13.6 days | MST [9]: 9.3 days | MST [10]: 4.1 days | MST [12]: 0 days | MST [13]: 0 days | MST [14]: 2.4 days

Nc1nc(N)c2cc([S+]([O-])c3ccc(F)cc3)ccc2n1 (stereo not drawn)
MCD [7]: 20 mg/kg | MST [19]: 16.9 days | MST [16]: 11.5 days | MST [17]: 8.9 days | MST [18]: 5.5 days | MST [11]: 0.7 days | MST [12]: 0.7 days | MST [13]: 1 days

Nc1nc(N)c2cc([S+]([O-])c3ccc4ccccc4c3)ccc2n1 (stereo not drawn)
Activity [20]: 0.1 mg/kg | fold change (FC) [21]: 0 | Activity [22]: 0.78 mg/kg | Activity [23]: 0.39 mg/kg | MIC [1]: < 0.25 µg/mL | MIC [2]: < 0.25 µg/mL | MIC [3]: < 0.25 µg/mL | MIC [4]: > 25 µg/mL | MIC [5]: < 0.25 µg/mL | MIC [6]: 2.5 µg/mL (≈ 7.48 µM) | MCD [7]: 20 mg/kg | MST [18]: 31.9 days | MST [8]: 14.2 days | MST [9]: 10.9 days | MST [10]: 6.7 days

Nc1nc(N)c2cc([S+]([O-])c3cccc(C(F)(F)F)c3)ccc2n1 (stereo not drawn)
MIC [1]: < 0.25 µg/mL | MIC [2]: < 0.25 µg/mL | MIC [3]: < 0.25 µg/mL | MIC [4]: > 25 µg/mL | MIC [5]: > 25 µg/mL | MIC [6]: > 25 µg/mL | MCD [7]: 40 mg/kg | MST [17]: 21.4 days | MST [18]: 12.7 days | MST [8]: 9.1 days | MST [9]: 4.1 days | MST [10]: 1.1 days | MST [14]: 6.4 days

Nc1nc(N)c2cc(Sc3ccc(Cl)c(Cl)c3)ccc2n1
Activity [20]: <0.4 mg/kg | fold change (FC) [21]: 0

Nc1nc(N)c2cc(Sc3ccc(Br)cc3)ccc2n1
Activity [20]: <1.6 mg/kg | fold change (FC) [21]: <4

Nc1nc(N)c2cc([S+]([O-])c3ccccc3)ccc2n1 (stereo not drawn)
MIC [1]: < 0.25 µg/mL | MIC [2]: < 0.25 µg/mL | MIC [3]: < 0.25 µg/mL | MIC [4]: > 25 µg/mL | MIC [5]: 1.5 µg/mL (≈ 5.28 µM) | MIC [6]: 15 µg/mL (≈ 52.8 µM) | MIC [15]: 20 µg/mL (≈ 70.3 µM) | MCD [7]: 160 mg/kg | MST [19]: 15.9 days | MST [16]: 11.3 days | MST [17]: 4.9 days | MST [18]: 1.1 days | MST [12]: 0 days | MST [13]: 0 days | MST [14]: 0 days

Nc1nc(N)c2cc(S(=O)(=O)c3ccc(Br)cc3)ccc2n1
Activity [20]: <1.6 mg/kg | fold change (FC) [21]: <3 | MIC [1]: < 0.25 µg/mL | MIC [2]: < 0.25 µg/mL | MIC [3]: < 0.25 µg/mL | MIC [4]: > 25 µg/mL | MIC [5]: 2.5 µg/mL (≈ 6.59 µM) | MIC [6]: > 25 µg/mL | MCD [7]: 10 mg/kg | MST [17]: 9.9 days | MST [18]: 13.1 days | MST [8]: 10.3 days | MST [9]: 6.5 days

COc1ccc([S+]([O-])c2ccc3nc(N)nc(N)c3c2)cc1 (stereo not drawn)
MCD [7]: 20 mg/kg | MST [24]: 25.9 days | MST [19]: 13.2 days | MST [16]: 10.5 days | MST [17]: 2.7 days | MST [18]: 0.7 days | MST [25]: 24.2 days | Activity [26]: Active | Activity [27]: Toxic

Nc1nc(N)c2cc(S(=O)(=O)c3cccc(C(F)(F)F)c3)ccc2n1
Activity [22]: 1.56 mg/kg | Activity [23]: 0.39 mg/kg | MIC [1]: 0.25 µg/mL (≈ 0.679 µM) | MIC [2]: 1.5 µg/mL (≈ 4.07 µM) | MIC [3]: 2 µg/mL (≈ 5.43 µM) | MIC [4]: > 25 µg/mL | MIC [5]: > 25 µg/mL | MIC [6]: > 25 µg/mL | MIC [15]: 25 µg/mL (≈ 67.9 µM) | MCD [7]: 40 mg/kg | MST [17]: 13.9 days | MST [18]: 11.6 days | MST [8]: 7.7 days | MST [9]: 1.5 days | MST [10]: 0.5 days

Nc1nc(N)c2cc(S(=O)(=O)c3ccc(F)cc3)ccc2n1
Activity [20]: 0.6 mg/kg | fold change (FC) [21]: 3 | MCD [7]: 20 mg/kg | MST [18]: 12.9 days | MST [8]: 13.6 days | MST [9]: 6.9 days | MST [10]: 4.1 days

CN(C)c1ccc(Sc2ccc3nc(N)nc(N)c3c2)cc1
Activity [20]: 0.9 mg/kg | fold change (FC) [21]: 0 | Activity [22]: 2.5 mg/kg | Activity [23]: 1.25 mg/kg

Nc1nc(N)c2cc(Sc3ccc4ccccc4c3)ccc2n1
Activity [20]: <1.6 mg/kg | fold change (FC) [21]: 0 | Activity [22]: 3.125 mg/kg | Activity [23]: 1.56 mg/kg
